“Also recorded” adds a separate entry of the source.
Experiments:
[1] = test system: G-protein Gi1α; details: literature (Galbiati et al., Biochem J 313:717-720); cited from earlier work
[2] = test system: alpha-smooth muscle actin (α-SMA); assay: BioMAP human primary cell system mimicking myofibroblast development: alpha-smooth muscle actin level; format: cell-based; details: human primary lung fibroblasts stimulated with TGF-β and TNF-α, 24 hours; 2.6, 7.8, 23 and 70 μM; dose-dependent (FIG. 4)
Method: Phenotypic profiling, including antifibrotic activity, was conducted across 12 human primary cell-based systems as part of DiscoverX's BioMAP Diversity Plus program. These systems are designed to model complex human tissue and disease biology of the vasculature, skin, lung, and inflammatory tissues. […] Cell-based activated systems were incubated with pure N-acetylhistamine for 24 to 72 hours. Protein-based biomarkers from activated cell systems were measured and compared with controls. Biomarker activities were annotated when 2 or more consecutive concentrations change in the same directions relative to vehicle controls, were outside of the significance envelope and had at least one concentration with an effect size >20% (log 10 ratio)>0.1.
In our study, N-acetylhistamine, an […] involved in histadine metabolism, caused a significant and dose-dependent decrease in alpha-smooth muscle actin (α-SMA), a protein involved in muscle contraction, cell motility, structure and integrity and a marker for activated myofibroblast phenotype, in a human cell system mimicking myofibroblast development. In this system, human primary lung fibroblasts were stimulated with TGF-β and TNF-α and incubated with the test agent, drug control, or vehicle control for 24 hours. A negative, non-stimulated system was also included.

[3] = room temperature; cited from earlier work

SMILES	effect on myristoylation of Gi1α [1]	change in alpha-smooth muscle actin (α-SMA) compared to internal controls [2]	stability of the powder [3]
CCCCCCCCCCCCC(O)C(=O)O (stereo not drawn) [2-hydroxymyristate]	inhibits		
CC(=O)NCCc1c[nH]cn1 [N-acetylhistamine]		significantly decreased; also recorded: lowered	stable at room temperature

From patent US10603296B1, “Compositions and methods for diagnosis and treatment of neuromuscular disorders” (United States of America as represented by the Secretary of …, priority 2019, dated 2020)
